According to ChEMBL document CHEMBL1154267, “Imidazo[1,5-a][1,2,4]-triazolo[1,5-d][1,4]benzodiazepines as potent and highly selective GABAA alpha5 inverse agonists with potential for the treatment of cognitive dysfunction” (Bioorg Med Chem Lett, 2009):
Values after ≈ are worked out from the molar mass of the structure shown.

How the values were obtained:
[1] = target: T1, GABA-A receptor; alpha-5/beta-3/gamma-2 (Homo sapiens, UniProt P18507+P28472+P31644); experiment: Displacement of [3H]flumazenil from GABAA alpha-5-beta-3-gamma-2 receptor; type: protein-complex assay
T1 sequence (P18507 whole entry): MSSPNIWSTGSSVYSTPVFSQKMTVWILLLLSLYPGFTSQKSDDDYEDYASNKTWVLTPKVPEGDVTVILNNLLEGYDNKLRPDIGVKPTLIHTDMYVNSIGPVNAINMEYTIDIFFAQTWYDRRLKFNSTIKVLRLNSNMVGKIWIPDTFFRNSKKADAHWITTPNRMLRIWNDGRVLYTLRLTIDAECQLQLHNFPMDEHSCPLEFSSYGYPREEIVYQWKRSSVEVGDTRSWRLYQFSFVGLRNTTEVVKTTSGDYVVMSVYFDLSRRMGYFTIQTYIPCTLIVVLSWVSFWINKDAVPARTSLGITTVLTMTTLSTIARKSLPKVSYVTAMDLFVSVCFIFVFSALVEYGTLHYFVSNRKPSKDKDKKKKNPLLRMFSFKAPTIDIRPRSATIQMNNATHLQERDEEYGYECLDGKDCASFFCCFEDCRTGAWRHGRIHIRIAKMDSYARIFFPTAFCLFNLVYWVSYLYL
T1 sequence (P28472 whole entry): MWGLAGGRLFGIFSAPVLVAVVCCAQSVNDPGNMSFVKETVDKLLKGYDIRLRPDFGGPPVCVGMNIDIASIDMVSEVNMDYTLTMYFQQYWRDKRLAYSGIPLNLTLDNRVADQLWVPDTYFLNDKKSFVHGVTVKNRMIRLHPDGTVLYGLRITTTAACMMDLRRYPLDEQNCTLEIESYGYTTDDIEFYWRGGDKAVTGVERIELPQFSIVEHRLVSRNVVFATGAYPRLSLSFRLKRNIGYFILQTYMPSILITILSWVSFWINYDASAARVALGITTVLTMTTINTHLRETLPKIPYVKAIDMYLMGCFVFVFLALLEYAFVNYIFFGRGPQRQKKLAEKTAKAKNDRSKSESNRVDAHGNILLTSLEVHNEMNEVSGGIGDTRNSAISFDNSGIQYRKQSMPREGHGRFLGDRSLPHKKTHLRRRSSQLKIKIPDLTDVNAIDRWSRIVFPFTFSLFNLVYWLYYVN
T1 sequence (P31644 whole entry): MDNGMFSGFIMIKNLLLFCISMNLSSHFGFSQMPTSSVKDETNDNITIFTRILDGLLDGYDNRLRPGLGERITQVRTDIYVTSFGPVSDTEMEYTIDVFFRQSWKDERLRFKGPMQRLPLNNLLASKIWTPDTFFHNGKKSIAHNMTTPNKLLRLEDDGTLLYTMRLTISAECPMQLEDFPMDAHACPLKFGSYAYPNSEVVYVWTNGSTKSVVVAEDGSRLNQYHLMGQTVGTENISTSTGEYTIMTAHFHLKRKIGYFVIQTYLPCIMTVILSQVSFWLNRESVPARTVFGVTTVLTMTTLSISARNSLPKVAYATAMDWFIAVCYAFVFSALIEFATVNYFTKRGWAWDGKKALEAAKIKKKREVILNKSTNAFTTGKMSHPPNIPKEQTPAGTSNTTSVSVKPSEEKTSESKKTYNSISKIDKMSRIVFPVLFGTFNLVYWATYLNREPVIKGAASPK

[2] = target: T2, GABA-A receptor; alpha-1/beta-3/gamma-2 (Homo sapiens, UniProt P14867+P18507+P28472); experiment: Displacement of [3H]flumazenil from GABAA alpha-1-beta-3-gamma-2 receptor; type: protein-complex assay
T2 sequence (P14867 whole entry): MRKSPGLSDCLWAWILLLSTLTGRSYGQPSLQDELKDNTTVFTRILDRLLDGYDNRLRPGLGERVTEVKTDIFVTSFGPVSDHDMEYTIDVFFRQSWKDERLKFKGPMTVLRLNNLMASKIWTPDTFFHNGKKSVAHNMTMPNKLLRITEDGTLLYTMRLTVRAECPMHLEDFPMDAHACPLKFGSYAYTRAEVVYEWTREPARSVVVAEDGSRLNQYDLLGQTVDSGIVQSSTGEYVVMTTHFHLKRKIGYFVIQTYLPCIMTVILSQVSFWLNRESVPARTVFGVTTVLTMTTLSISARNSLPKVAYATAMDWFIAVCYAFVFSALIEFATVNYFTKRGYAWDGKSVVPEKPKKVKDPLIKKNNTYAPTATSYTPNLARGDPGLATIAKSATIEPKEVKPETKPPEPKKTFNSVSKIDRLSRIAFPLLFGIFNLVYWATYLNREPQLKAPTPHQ
T2 sequence (P18507 whole entry): T1 sequence (P18507 whole entry)
T2 sequence (P28472 whole entry): T1 sequence (P28472 whole entry)

[3] = target: T3, GABA-A receptor; alpha-2/beta-3/gamma-2 (Homo sapiens, UniProt P18507+P28472+P47869); experiment: Displacement of [3H]flumazenil from GABAA alpha-2-beta-3-gamma-2 receptor; type: protein-complex assay
T3 sequence (P18507 whole entry): T1 sequence (P18507 whole entry)
T3 sequence (P28472 whole entry): T1 sequence (P28472 whole entry)
T3 sequence (P47869 whole entry): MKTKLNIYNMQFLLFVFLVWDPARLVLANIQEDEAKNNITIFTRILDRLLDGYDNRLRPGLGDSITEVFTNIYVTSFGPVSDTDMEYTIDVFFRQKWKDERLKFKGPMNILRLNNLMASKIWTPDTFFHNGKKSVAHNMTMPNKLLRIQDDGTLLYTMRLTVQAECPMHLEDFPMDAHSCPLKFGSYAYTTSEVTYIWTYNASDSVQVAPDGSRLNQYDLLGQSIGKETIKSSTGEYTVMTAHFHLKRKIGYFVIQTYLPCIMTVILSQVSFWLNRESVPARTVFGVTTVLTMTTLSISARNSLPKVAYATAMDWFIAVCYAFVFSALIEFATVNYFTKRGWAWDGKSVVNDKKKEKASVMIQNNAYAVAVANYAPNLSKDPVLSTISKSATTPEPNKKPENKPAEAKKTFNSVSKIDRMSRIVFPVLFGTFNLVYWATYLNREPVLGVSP

[4] = target: T4, GABA-A receptor; alpha-3/beta-3/gamma-2 (Homo sapiens, UniProt P18507+P28472+P34903); experiment: Displacement of [3H]flumazenil from GABAA alpha-3-beta-3-gamma-2 receptor; type: protein-complex assay
T4 sequence (P18507 whole entry): T1 sequence (P18507 whole entry)
T4 sequence (P28472 whole entry): T1 sequence (P28472 whole entry)
T4 sequence (P34903 whole entry): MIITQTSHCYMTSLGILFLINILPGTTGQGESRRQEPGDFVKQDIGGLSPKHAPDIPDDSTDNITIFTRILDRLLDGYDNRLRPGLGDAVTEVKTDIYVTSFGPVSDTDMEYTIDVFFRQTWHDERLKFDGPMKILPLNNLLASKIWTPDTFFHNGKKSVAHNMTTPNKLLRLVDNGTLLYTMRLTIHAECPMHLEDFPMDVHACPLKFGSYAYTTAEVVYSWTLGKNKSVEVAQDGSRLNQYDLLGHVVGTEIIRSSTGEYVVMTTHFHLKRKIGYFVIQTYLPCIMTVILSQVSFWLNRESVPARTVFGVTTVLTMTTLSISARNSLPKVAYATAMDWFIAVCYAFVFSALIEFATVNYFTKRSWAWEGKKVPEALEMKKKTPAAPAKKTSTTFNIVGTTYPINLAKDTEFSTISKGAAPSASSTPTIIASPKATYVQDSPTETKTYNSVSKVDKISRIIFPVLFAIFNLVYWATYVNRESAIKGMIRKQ

[5] = target: GABA-A receptor; alpha-5/beta-3/gamma-2 (Homo sapiens) (UniProt P18507+P28472+P31644); experiment: Inverse agonist activity at GABAA alpha-5-beta-3-gamma-2 receptor assessed as modulation of GABA-induced chloride ion flux by electrophysiology assay relative to GABA; type: functional
[6] = Selectivity ratio of Ki for GABAA alpha-1-beta-3-gamma-2 receptor to Ki for GABAA alpha-5-beta-3-gamma-2 receptor
[7] = Selectivity ratio of Ki for GABAA alpha-2-beta-3-gamma-2 receptor to Ki for GABAA alpha-5-beta-3-gamma-2 receptor
[8] = Selectivity ratio of Ki for GABAA alpha-3-beta-3-gamma-2 receptor to Ki for GABAA alpha-5-beta-3-gamma-2 receptor
[9] = Solubility of the compound; type: physicochemical
[10] = Lipophilicity, log D at pH 7.4; type: physicochemical; conditions: buffer
[11] = Permeability by PAMPA; type: ADME; conditions: read-out: permeability
[12] = Half life in rat; type: ADME, organism-based; conditions: in vivo
[13] = Clearance in rat; type: ADME, organism-based; conditions: in vivo
[14] = Volume of distribution at steady state in rat; type: ADME, organism-based; conditions: in vivo, read-out: Vdss
[15] = Oral bioavailability in rat; type: ADME, organism-based; conditions: in vivo
[16] = Ratio of drug level in brain to plasma in rat; type: ADME, organism-based; conditions: brain and plasma

SMILES | Ki [1] | Ki [2] | Ki [3] | Ki [4] | Efficacy [5] | Ratio Ki [6] | Ratio Ki [7] | Ratio Ki [8] | solubility [9] | logD [10] | Papp [11] | half-life [12] | clearance [13] | Vd [14] | bioavailability [15] | Kp [16]
Cc1nc2n(n1)Cc1c(C)ncn1-c1ccc(Br)cc1-2 | 20 nM | 1420 nM | 3160 nM | 1620 nM | -17% | – | – | – | – | – | – | – | – | – | – | –
Cc1cc(Cc2nc3n(n2)Cc2c(C)ncn2-c2ccccc2-3)on1 | 1.6 nM | – | – | – | – | 57 | 20 | 16 | – | – | – | – | – | – | – | –
COCc1nc2n(n1)Cc1c(C)ncn1-c1ccc(Br)cc1-2 | 13 nM | 619 nM | 693 nM | 592 nM | -3% | – | – | – | – | – | – | – | – | – | – | –
Cc1ncn2c1Cn1nc(CC3CC3)nc1-c1cc(Br)ccc1-2 | 5 nM | 538 nM | 407 nM | 407 nM | -12% | 2 | 2 | 2 | – | – | – | – | – | – | – | –
Cc1cc(Cc2nc3n(n2)Cc2c(C)ncn2-c2ccc(O)cc2-3)on1 | 1.2 nM | – | – | – | -7% | 99 | – | – | – | – | – | – | – | – | – | –
Cc1cc(Cc2nc3n(n2)Cc2c(C)ncn2-c2ccc(Br)cc2-3)on1 | 0.6 nM | 188 nM | 105 nM | 73 nM | -27% | 314 | 174 | 122 | 7 µg/mL (≈ 17 µM) | 2.6 | 3.3 ×10⁻⁶ cm/s | 1.4 h | 39 mL/min/kg | 4.6 L/kg | 34% | 0.2
Cc1noc(Cc2nc3n(n2)Cc2c(C)ncn2-c2ccc(Br)cc2-3)n1 | 0.9 nM | 469 nM | 317 nM | 277 nM | -18% | – | – | – | – | – | – | – | – | – | – | –
